Data reported in US8530493B2, “Indolopyridines as Eg5 kinesin modulators” (4SC AG, priority 2006, dated 2013).

Experiments:
[1] = tested on: RKO p27 or p21 uninduced (proliferating) colon adenocarcinoma cells; assay: Alamar Blue cell viability assay, RKO p27 or p21 uninduced (proliferating); assay type: cell-based; conditions: Homo sapiens, RKOp27, 72 h, Table B2, anti-proliferative/cytotoxic activity, read-out: −log EC50 RKO p27 or p21 uninduced (proliferating) (converted)
Procedure: The anti-proliferative/cytotoxic activity of the compounds described herein can be tested on subclones of RKO human colon adenocarcinoma cells (Schmidt et al., Oncogene 19, 2423-2429; 2000) using the Alamar Blue cell viability assay (described in O'Brien et al. Eur J Biochem 267, 5421-5426, 2000). The compounds are dissolved as 10 mM solutions in DMSO and subsequently diluted in semi-logarithmic steps. DMSO dilutions are further diluted 1:100 into Dulbecco's modified Eagle's medium (DMEM) containing 10% fetal calf serum to a final concentration twice as much as the final concentration in the test. RKO subclones are seeded into 96 well flat bottom plates at a density of 4000 cells per well in a volume of 50 μl per well. 24 hours after seeding the 50 μl each of the compound dilutions in DMEM medium are added into each well of the 96 well plate. Each compound dilution is tested as triplicates. Wells containing untreated control cells are filled with 50 μl DMEM medium containing 1% DMSO. The cells are then incubated with the substances for 72 hours at 37° C. in a humidified atmosphere containing 5% carbon dioxide. To determine the viability of the cells, 10 μl of an Alamar Blue solution (Biosource) are added and the fluorescence is measured at an extinction of 544 nm and an emission of 590 nm. For the calculation of the cell viability the emission value from untreated cells is set as 100% viability and the emission rates of treated cells are set in relation to the values of untreated cells. Viabilities are expressed as % values. The Graphpad Prism program is used for the calculation of EC50 values for anti-proliferative/cytotoxic activity out of the obtained dose-response curves.
(§1) To determine the cell cycle specific mode of action, subclones of RKO colon adenocarcinoma cells (RKOp21 or RKOp27 as described by Schmidt et al. in Oncogene 19, 2423-2429; 2000) are seeded into 96 well flat bottom plates at a density of 16000 cells per well in a volume of 50 μl per well in DMEM growth medium with 10% FCS containing 10 μM Ponasterone A. 24 hours after seeding the 50 μl each of the compound dilutions in DMEM medium are added into each well of the 96-well plate. Each compound dilution is tested as triplicates. Wells containing untreated control cells are filled with 50 μl DMEM medium containing 1% DMSO. The cells are then incubated with the substances for 72 hours at 37° C. in a humidified atmosphere containing 5% carbon dioxide. To determine the viability of the cells, 10 μl of an Alamar Blue solution (Biosource) are added and the fluorescence is measured at an extinction of 544 nm and an emission of 590 nm. For the calculation of the cell viability the emission value from untreated cells is set as 100% viability and the emission rates of treated cells are set in relation to the values of untreated cells. Viabilities are expressed as % values. The Graphpad Prism program (GraphPad Software, Inc) is used for the calculation of EC50 values out of the obtained dose-response curves. Viability is compared of proliferating cells grown in the absence of the inducer Ponasterone A, versus viability of cells arrested by the expression of ectopic p27Kip1 induced by Ponasterone A.
(§2) Representative values for anti-proliferation/cytotoxicity [measured as −log EC50 (mol/l)] determined in the aforementioned assays follow from the following tables B1, B2 and B3, in which the numbers of the compounds correspond to the numbers of the examples.

[2] = tested on: RKO p27 or p21 induced (arrested) colon adenocarcinoma cells; assay: Alamar Blue cell viability assay, RKO p27 or p21 induced (arrested); assay type: cell-based; conditions: Homo sapiens, RKOp27, Table B2, cells arrested by Ponasterone A, 72 hours, read-out: −log EC50 RKO p27 or p21 induced (arrested) (converted)
Procedure: as §1, §2

| Compound | EC50 [2] [nM] | EC50 [1] [nM] |
| --- | --- | --- |
| COc1ccc2[nH]c3c(c2c1)C[C@@]1(C)C(=O)N(CCCN2CC=CCC2)C(=O)N1[C@@H]3c1cccc(O)c1 (racemic) [Example 106, (3aSR,10RS)-2-[3-(3,6-Dihydro-2H-pyridin-1-yl)-propyl]-10-(3-hydroxy-phenyl)-6-methoxy-3a-methyl-3a,4,9,10-tetrahydro-2,9,10a-triaza-cyclopenta[b]fluorene-1,3-dione] | ≥ 316 | ≤ 39.8 |
| C[C@@]12Cc3c([nH]c4ccc(Cl)cc34)[C@@H](c3cccc(O)c3)N1C(=O)N(CCN1CC=CC1)C2=O (racemic) [Example 109, (3aSR,10RS)-6-Chloro-2-[2-(2,5-dihydro-pyrrol-1-yl)-ethyl]-10-(3-hydroxy-phenyl)-3a-methyl-3a,4,9,10-tetrahydro-2,9,10a-triaza-cyclopenta[b]fluorene-1,3-dione] | ≥ 316 | ≤ 39.8 |
| C=CCNCCN1C(=O)N2[C@H](c3cccc(O)c3)c3[nH]c4ccc(OC)cc4c3C[C@@]2(C)C1=O (racemic) [Example 84, (3aSR,10RS)-2-(2-Allylamino-ethyl)-10-(3-hydroxy-phenyl)-6-methoxy-3a-methyl-3a,4,9,10-tetrahydro-2,9,10a-triaza-cyclopenta[b]fluorene-1,3-dione] | ≥ 3160 | ≤ 39.8 |
| C[C@@]12Cc3c([nH]c4ccc(Cl)cc34)[C@@H](c3cccc(O)c3)N1C(=O)N(CCN1CCCCCC1)C2=O (racemic) [Example 104, (3aSR,10RS)-2-(2-Azepan-1-yl-ethyl)-6-chloro-10-(3-hydroxy-phenyl)-3a-methyl-3a,4,9,10-tetrahydro-2,9,10a-triaza-cyclopenta[b]fluorene-1,3-dione] | ≥ 3160 | ≤ 39.8 |
| C=CCN(C)CCN1C(=O)N2[C@H](c3cccc(O)c3)c3[nH]c4ccc(OC)cc4c3C[C@@]2(C)C1=O (racemic) [Example 80, (3aSR,10RS)-2-[2-(Allyl-methyl-amino)-ethyl]-10-(3-hydroxy-phenyl)-6-methoxy-3a-methyl-3a,4,9,10-tetrahydro-2,9,10a-triaza-cyclopenta[b]fluorene-1,3-dione] | ≥ 3160 | ≤ 39.8 |
| COc1ccc2[nH]c3c(c2c1)C[C@@]1(C)C(=O)N(CCCN2CCC2)C(=O)N1[C@@H]3c1cccc(O)c1 (racemic) [Example 87, (3aSR,10RS)-2-(3-Azetidin-1-yl-propyl)-10-(3-hydroxy-phenyl)-6-methoxy-3a-methyl-3a,4,9,10-tetrahydro-2,9,10a-triaza-cyclopenta[b]fluorene-1,3-dione] | ≥ 3160 | ≤ 39.8 |
| COc1ccc2[nH]c3c(c2c1)C[C@@]1(C)C(=O)N(CCNCCO)C(=O)N1[C@@H]3c1cccc(O)c1 (racemic) [Example 82, (3aSR,10RS)-2-[2-(2-Hydroxy-ethylamino)-ethyl]-10-(3-hydroxy-phenyl)-6-methoxy-3a-methyl-3a,4,9,10-tetrahydro-2,9,10a-triaza-cyclopenta[b]fluorene-1,3-dione] | ≥ 3160 | ≤ 39.8 |
| CNCCCN1C(=O)N2[C@H](c3cccc(O)c3)c3[nH]c4ccc(OC)cc4c3C[C@@]2(C)C1=O (racemic) [Example 76, (3aSR,10RS)-10-(3-Hydroxy-phenyl)-6-methoxy-3a-methyl-2-(3-methylamino-propyl)-3a,4,9,10-tetrahydro-2,9,10a-triaza-cyclopenta[b]fluorene-1,3-dione] | ≥ 3160 | ≤ 39.8 |
| CCN(CCOC)CCN1C(=O)N2[C@H](c3cccc(O)c3)c3[nH]c4ccc(OC)cc4c3C[C@@]2(C)C1=O (racemic) [Example 79, (3aSR,10RS)-2-[2-[Ethyl-(2-methoxy-ethyl)-amino]-ethyl}-10-(3-hydroxy-phenyl)-6-methoxy-3a-methyl-3a,4,9,10-tetrahydro-2,9,10a-triaza-cyclopenta[b]fluorene-1,3-dione] | ≥ 3160 | ≤ 39.8 |

Now from value to compound, other results behind:

| EC50 [2] [nM] | Compound | EC50 [1] [nM] |
| --- | --- | --- |
| ≥ 3160 | C[C@@]12Cc3c([nH]c4ccc(Cl)cc34)[C@@H](c3cccc(O)c3)N1C(=O)N(CCCN1CCC1)C2=O (racemic) [Example 141, (3aSR,10RS)-2-(3-Azetidin-1-yl-propyl)-6-chloro-10-(3-hydroxy-phenyl)-3a-methyl-3a,4,9,10-tetrahydro-2,9,10a-triaza-cyclopenta[b]fluorene-1,3-dione] | ≤ 39.8 |
| ≥ 316 | C#CCN(C)CCCN1C(=O)N2[C@H](c3cccc(O)c3)c3[nH]c4ccc(OC)cc4c3C[C@@]2(C)C1=O (racemic) [Example 144] | 39.8 to 251 |
| ≥ 316 | COCCNCCN1C(=O)N2[C@H](c3cccc(O)c3)c3[nH]c4ccc(Cl)cc4c3C[C@@]2(C)C1=O (racemic) [Example 128, (3aSR,10RS)-6-Chloro-10-(3-hydroxy-phenyl)-2-[2-(2-methoxy-ethylamino)-ethyl]-3a-methyl-3a,4,9,10-tetrahydro-2,9,10a-triaza-cyclopenta[b]fluorene-1,3-dione] | ≤ 39.8 |
| ≥ 316 | CNCCCN1C(=O)N2[C@H](c3cccc(O)c3)c3[nH]c4ccc(Cl)cc4c3C[C@@]2(C)C1=O (racemic) [Example 130, (3aSR,10RS)-6-Chloro-10-(3-hydroxy-phenyl)-3a-methyl-2-(3-methylamino-propyl)-3a,4,9,10-tetrahydro-2,9,10a-triaza-cyclopenta[b]fluorene-1,3-dione] | ≤ 39.8 |
| ≥ 316 | CC(=O)N1CCN(CCN2C(=O)N3[C@H](c4cccc(O)c4)c4[nH]c5ccc(Cl)cc5c4C[C@@]3(C)C2=O)CC1 (racemic) [Example 114, (3aSR,10RS)-2-[2-(4-Acetyl-piperazin-1-yl)-ethyl]-6-chloro-10-(3-hydroxy-phenyl)-3a-methyl-3a,4,9,10-tetrahydro-2,9,10a-triaza-cyclopenta[b]fluorene-1,3-dione] | ≤ 39.8 |
| ≥ 316 | Cn1ccc(NCCN2C(=O)N3[C@H](c4cccc(O)c4)c4[nH]c5ccc(Cl)cc5c4C[C@@]3(C)C2=O)n1 (racemic) [Example 125, (3aSR,10RS)-6-Chloro-10-(3-hydroyx-phenyl)-3a-methyl-2-[2-(1-methyl-1H-pyrazol-3-ylamino)-ethyl]-3a,4,9,10-tetrahydro-2,9,10a-triaza-cyclopenta[b]fluorene-1,3-dione] | 39.8 to 251 |
| ≥ 316 | C[C@@]12Cc3c([nH]c4ccc(Cl)cc34)[C@@H](c3cccc(O)c3)N1C(=O)N(CCN1CCC(F)(F)C1)C2=O (racemic) [Example 129, (3aSR,10RS)-6-Chloro-2-[2-(3,3-difluoro-pyrrolidin-1-yl)-ethyl]-10-(3-hydroxy-phenyl)-3a-methyl-3a,4,9,10-tetrahydro-2,9,10a-triaza-cyclopenta[b]fluorene-1,3-dione] | 39.8 to 251 |
| ≥ 316 | CCN(CCOC)CCN1C(=O)N2[C@H](c3cccc(O)c3)c3[nH]c4ccc(Cl)cc4c3C[C@@]2(C)C1=O (racemic) [Example 121, (3aSR,10RS)-6-Chloro-2-{2-[ethyl-(2-methoxy-ethyl)-amino]-ethyl}-10-(3-hydroxy-phenyl)-3a-methyl-3a,4,9,10-tetrahydro-2,9,10a-triaza-cyclopenta[b]fluorene-1,3-dione] | 39.8 to 251 |
| ≥ 316 | C#CCN(C)CCN1C(=O)N2[C@H](c3cccc(O)c3)c3[nH]c4ccc(Cl)cc4c3C[C@@]2(C)C1=O (racemic) [Example 116, (3aSR,10RS)-6-Chloro-10-(3-hydroxy-phenyl)-3a-methyl-2-[2-(methyl-prop-2-ynyl-amino)-ethyl]-3a,4,9,10-tetrahydro-2,9,10a-triaza-cyclopenta[b]fluorene-1,3-dione] | 39.8 to 251 |
